According to patent US10689377B2 (Mirati Therapeutics, Inc., priority 2017, dated 2020):
pIC50: −log10 of the molar value.

Target: KRas G12C (Homo sapiens, UniProt P01116, G12C)
Assay: Cellular inhibition of KRas G12C measured by Phospho-ERK in NCI-H358 cells
Format: cell-based
Conditions: pERK(Thr202/Tyr204) normalized with GAPDH, NCI-H358 cells, 3 hours; read-out: IC50
Experimental: Cells were plated in poly-D-Lysine coated 96-well plates at a concentration of 50,000 cells/well and allowed to attach for 8-12 hours. Diluted compounds were then added at a final concentration of 0.5% DMSO. After 3 hours, the medium was removed, 150 μL of 4% formaldehyde was added and the plates were incubated for 20 minutes. The plates were washed with PBS, and permeabilized using 150 μL of ice cold 100% methanol for 10 minutes. Non-specific antibody binding to the plates was blocked using 100 μL Licor Blocking Buffer (Li-Cor Biotechnology, Lincoln Nebr.) for 1 hour at room temperature. Positive control samples and samples lacking cells were parallel processed with test samples as standards.
The amount Phospho-ERK was determined using an antibody specific for the phosphorylated form of ERK and compared to the amount of GAPDH. […] The plates were incubated for 2 hours at room temperature. The plates were washed with PBS+0.05% Tween 20.
Secondary antibodies used to visualize primary antibodies were added as follows: Anti-rabbit-680 diluted 1:1000 and Anti-mouse-800 diluted 1:1000 in Licor Block+0.05% Tween 20 and incubated for 1 hour at room temperature. The plates were washed with PBS+0.05% Tween 20. A 100 μL aliquot of PBS was added to each well and the plates were read on a LICOR AERIUS plate reader.
The pERK(Thr202/Tyr204) signal was normalized with the GAPDH signal and percent of DMSO control values were calculated. IC50 values were generated using a 4 parameter fit of the dose response curve. Key: “A”≥0.0001-≤1 μM; “B”>1 μM and ND=not determined.

Chain of KRas G12C (P01116 1-188 isoform P01116-2 G12C): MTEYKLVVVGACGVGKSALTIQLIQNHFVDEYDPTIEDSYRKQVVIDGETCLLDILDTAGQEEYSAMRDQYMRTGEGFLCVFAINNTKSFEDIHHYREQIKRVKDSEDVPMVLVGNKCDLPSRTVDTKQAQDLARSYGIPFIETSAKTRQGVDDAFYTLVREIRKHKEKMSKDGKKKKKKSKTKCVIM

**Q.** How did the pIC50 turn out when `C=CC(=O)N1CCN(c2nc(O[C@H](C)CN3CCOCC3)nc3c2CCN(c2cc(O)cc4ccccc24)C3)CC1` [Example 56, (R)-1-(4-(7-(3-hydroxynaphthalen-1-yl)-2-((1-morpholinopropan-2-yl)oxy)-5,6,7,8-tetrahydropyrido[3,4-d]pyrimidin-4-yl)piperazin-1-yl)prop-2-en-1-one] was run?
**A.** 6.00 to 10.00

**Q.** With `C=CC(=O)N1CCN(c2nc(OC[C@@H]3CCC(=O)N3)nc3c2CCN(c2cc(O)cc4ccccc24)C3)CC1` [Example 57, (S)-5-(((4-(4-acryloylpiperazin-1-yl)-7-(3-hydroxynaphthalen-1-yl)-5,6,7,8-tetrahydropyrido[3,4-d]pyrimidin-2-yl)oxy)methyl)pyrrolidin-2-one] as the compound, how does the pIC50 read?
**A.** < 6.00

**Q.** With `C=CC(=O)N1CCN(c2nc(OC[C@H]3CCC(=O)N3)nc3c2CCN(c2cc(O)cc4ccccc24)C3)CC1` [Example 58, (R)-5-(((4-(4-acryloylpiperazin-1-yl)-7-(3-hydroxynaphthalen-1-yl)-5,6,7,8-tetrahydropyrido[3,4-d]pyrimidin-2-yl)oxy)methyl)pyrrolidin-2-one] as the compound, how does the pIC50 read?
**A.** < 6.00

**Q.** How did the pIC50 turn out when `C=CC(=O)N1CCN(c2nc(OCCNC(C)=O)nc3c2CCN(c2cc(O)cc4ccccc24)C3)CC1` [Example 59, N-(2-((4-(4-acryloylpiperazin-1-yl)-7-(3-hydroxynaphthalen-1-yl)-5,6,7,8-tetrahydropyrido[3,4-d]pyrimidin-2-yl)oxy)ethyl)acetamide] was run?
**A.** < 6.00

**Q.** How did the pIC50 turn out when `C=CC(=O)N1CCN(c2nc(O[C@H](CC)CN(C)C)nc3c2CCN(c2cc(O)cc4ccccc24)C3)CC1` [Example 60, (R)-1-(4-(2-((1-(dimethylamino)butan-2-yl)oxy)-7-(3-hydroxynaphthalen-1-yl)-5,6,7,8-tetrahydropyrido[3,4-d]pyrimidin-4-yl)piperazin-1-yl)prop-2-en-1-one] was run?
**A.** < 6.00

**Q.** How did the pIC50 turn out when `C=CC(=O)N1CCN(c2nc(O[C@H](C)CN3CC[C@@H](OC)C3)nc3c2CCN(c2cc(O)cc4ccccc24)C3)CC1` [Example 63, 1-(4-(7-(3-hydroxynaphthalen-1-yl)-2-(((R)-1-((R)-3-methoxypyrrolidin-1-yl)propan-2-yl)oxy)-5,6,7,8-tetrahydropyrido[3,4-d]pyrimidin-4-yl)piperazin-1-yl)prop-2-en-1-one] was run?
**A.** < 6.00

**Q.** With `C=CC(=O)N1CCN(c2nc(O[C@H](C)CN3CC[C@H](OC)C3)nc3c2CCN(c2cc(O)cc4ccccc24)C3)CC1` [Example 64, 1-(4-(7-(3-hydroxynaphthalen-1-yl)-2-(((R)-1-((S)-3-methoxypyrrolidin-1-yl)propan-2-yl)oxy)-5,6,7,8-tetrahydropyrido[3,4-d]pyrimidin-4-yl)piperazin-1-yl)prop-2-en-1-one] as the compound, how does the pIC50 read?
**A.** 6.00 to 10.00

**Q.** `C=CC(=O)N1CCN(c2nc(O[C@H](C)CN3CC[C@H](O)C3)nc3c2CCN(c2cc(O)cc4ccccc24)C3)CC1` [Example 65, 1-(4-(7-(3-hydroxynaphthalen-1-yl)-2-(((R)-1-((S)-3-hydroxypyrrolidin-1-yl)propan-2-yl)oxy)-5,6,7,8-tetrahydropyrido[3,4-d]pyrimidin-4-yl)piperazin-1-yl)prop-2-en-1-one] was tested. Which pIC50 did it give?
**A.** < 6.00

**Q.** With `C=CC(=O)N1CCN(c2nc(O[C@H]3CCCN(C)C3)nc3c2CCN(c2cc(O)cc4ccccc24)C3)CC1` [Example 66, (S)-1-(4-(7-(3-hydroxynaphthalen-1-yl)-2-((1-methylpiperidin-3-yl)oxy)-5,6,7,8-tetrahydropyrido[3,4-d]pyrimidin-4-yl)piperazin-1-yl)prop-2-en-1-one] as the compound, how does the pIC50 read?
**A.** < 6.00

**Q.** How did the pIC50 turn out when `C=CC(=O)N1CCN(c2nc(O[C@@H]3CCCN(C)C3)nc3c2CCN(c2cc(O)cc4ccccc24)C3)CC1` [Example 67, (R)-1-(4-(7-(3-hydroxynaphthalen-1-yl)-2-((1-methylpiperidin-3-yl)oxy)-5,6,7,8-tetrahydropyrido[3,4-d]pyrimidin-4-yl)piperazin-1-yl)prop-2-en-1-one] was run?
**A.** 6.00 to 10.00

**Q.** With `C=CC(=O)N1CCN(c2nc(O[C@H](C)CN(C)C)nc3c2CCN(c2cccc4ccccc24)C3)CC1` [Example 68, (R)-1-(4-(2-((1-(dimethylamino)propan-2-yl)oxy)-7-(naphthalen-1-yl)-5,6,7,8-tetrahydropyrido[3,4-d]pyrimidin-4-yl)piperazin-1-yl)prop-2-en-1-one] as the compound, how does the pIC50 read?
**A.** < 6.00

**Q.** With `C=CC(=O)N1CCN(c2ncnc3c2CCN(c2cncc4ccccc24)C3)CC1` [Example 69, 1-(4-(7-(isoquinolin-4-yl)-5,6,7,8-tetrahydropyrido[3,4-d]pyrimidin-4-yl)piperazin-1-yl)prop-2-en-1-one] as the compound, how does the pIC50 read?
**A.** < 6.00

**Q.** `C=CC(=O)N1CCN(c2nc(OC(C)CNC)nc3c2CCN(c2cc(O)cc4ccccc24)C3)CC1` (centres unmarked) [Example 70, 1-(4-(7-(3-hydroxynaphthalen-1-yl)-2-((1-(methylamino)propan-2-yl)oxy)-5,6,7,8-tetrahydropyrido[3,4-d]pyrimidin-4-yl)piperazin-1-yl)prop-2-en-1-one] was tested. Which pIC50 did it give?
**A.** < 6.00

**Q.** How did the pIC50 turn out when `C=CC(=O)N1CCN(c2ncnc3c2CCN(C(CO)c2ccccc2)C3)CC1` (centres unmarked) [Example 71, 1-(4-(7-(2-hydroxy-1-phenylethyl)-5,6,7,8-tetrahydropyrido[3,4-d]pyrimidin-4-yl)piperazin-1-yl)prop-2-en-1-one] was run?
**A.** < 6.00

**Q.** How did the pIC50 turn out when `C=CC(=O)N1CCN(c2nc(OCC3CCCN(C)C3)nc3c2CCN(c2cc(O)cc4ccccc24)C3)CC1` (centres unmarked) [Example 72] was run?
**A.** 6.00 to 10.00

**Q.** How did the pIC50 turn out when `C=CC(=O)N1CCN(c2nc(OCC(C)N(C)C)nc3c2CCN(c2cc(O)cc4ccccc24)C3)CC1` (centres unmarked) [Example 73, 1-(4-(2-(2-(dimethylamino)propoxy)-7-(3-hydroxynaphthalen-1-yl)-5,6,7,8-tetrahydropyrido[3,4-d]pyrimidin-4-yl)piperazin-1-yl)prop-2-en-1-one] was run?
**A.** < 6.00

**Q.** How did the pIC50 turn out when `C=CC(=O)N1CCN(c2nc(OCCCN3CCOCC3)nc3c2CCN(c2cc(O)cc4ccccc24)C3)CC1` [Example 74, 1-(4-(7-(3-hydroxynaphthalen-1-yl)-2-(3-morpholinopropoxy)-5,6,7,8-tetrahydropyrido[3,4-d]pyrimidin-4-yl)piperazin-1-yl)prop-2-en-1-one] was run?
**A.** 6.00 to 10.00

**Q.** With `C=CC(=O)N1CCN(c2nc(O[C@H](C)CN3CCCCC3)nc3c2CCN(c2cc(O)cc4ccccc24)C3)CC1` [Example 75, (R)-1-(4-(7-(3-hydroxynaphthalen-1-yl)-2-((1-(piperidin-1-yl)propan-2-yl)oxy)-5,6,7,8-tetrahydropyrido[3,4-d]pyrimidin-4-yl)piperazin-1-yl)prop-2-en-1-one] as the compound, how does the pIC50 read?
**A.** 6.00 to 10.00

**Q.** `C=CC(=O)N1CCN(c2nc(O[C@H](C)CN(C)C)nc3c2CCN(c2cc(O)cc(Cl)c2C(C)C)C3)CC1` [Example 76, (R)-1-(4-(7-(3-chloro-5-hydroxy-2-isopropylphenyl)-2-((1-(dimethylamino)propan-2-yl)oxy)-5,6,7,8-tetrahydropyrido[3,4-d]pyrimidin-4-yl)piperazin-1-yl)prop-2-en-1-one] was tested. Which pIC50 did it give?
**A.** < 6.00

**Q.** With `C=CC(=O)N1CCN(c2nc(OCCN3C[C@@H]4CC[C@H]3C4)nc3c2CCN(c2cc(O)cc4ccccc24)C3)CC1` [Example 77, 1-(4-(2-(2-((1S,4R)-2-azabicyclo[2.2.1]heptan-2-yl)ethoxy)-7-(3-hydroxynaphthalen-1-yl)-5,6,7,8-tetrahydropyrido[3,4-d]pyrimidin-4-yl)piperazin-1-yl)prop-2-en-1-one] as the compound, how does the pIC50 read?
**A.** 6.00 to 10.00
